# Where two headings read alike, the source gives them in different places. Positions of bridges follow the written chain, without caps; N, C: chain ends. Non-standard residues stand in square brackets, D forms with d. Residues, ends and D or L forms follow the SMILES beside them. *: point of attachment. Ethyl(2-propionyloxy) = CCC(=O)OCC*; Ethyl(2-OPiv) = CC(C)(C)C(=O)OCC*; Ethyl(2-OBz) = O=C(OCC*)c1ccccc1; Dab = NCC[C@H](N)C(=O)O
# Legend:
# E. coli ATCC 25922 = type: cell-based, Escherichia coli
# Source text: (§1) All 81 compounds prepared in Examples 2 and 3 underwent screening against a panel of Gram-negative bacterium to assess their ability to inhibit bacterial growth. […] The median value is presented.
# A. baumannii ATCC 19606 = type: cell-based, Acinetobacter baumannii
# Source text: as §1
# P. aeruginosa ATCC 27853 = type: cell-based, Pseudomonas aeruginosa
# Source text: as §1
# K. pneumoniae ATCC 33495 = type: cell-based, Klebsiella pneumoniae
# Source text: as §1
# [1] = tested on: K. pneumoniae ATCC 700603; type: cell-based, Klebsiella pneumoniae
# Source text: as §1
# [2] = tested on: K. pneumoniae ATCC MS6671; type: cell-based, Klebsiella pneumoniae
# Source text: as §1
# E. coli ATCC MS8345 = type: cell-based, Escherichia coli
# Source text: as §1
# Expansion of the polymyxin macrocycle by substituting […]) offered little advantage in antimicrobial activity but was generally well tolerated although for A. baumanni and P. aeruginosa this was detrimental.
# Vero cell line = experiment: Cellular toxicity against Vero cell line; type: cell-based
# Experimental: (§2) FIG. 6 is a graph showing cell survival as a function of the indicated compound concentration. Data are representative of triplicate experiments.
# (§3) To evaluate if the ClipPA modifications introduced any new toxicity, inhibitory concentrations against Vero and HaCaT cell lines were determined. […] The standard error for each measurement is shown.
# HaCaT cell line = experiment: Cellular toxicity against HaCaT cell line; type: cell-based
# Experimental: as §2, §3
# [3] = tested on: colistin-resistant E. coli; type: cell-based, Escherichia coli; conditions: colistin-resistant
# Source text: (§4) Given the promising antimicrobial activity and low toxicity associated with compounds 29, 35 and to a lesser extent 38, these compounds were progressed to a further round of phenotypic antimicrobial susceptibility testing using a panel of clinically relevant multidrug resistant Gram-negative pathogens. This panel included isolates phenotypically characterised as carbapenem-resistant Enterobacteriacea (CRE), extended spectrum β-lactamase (ESBL) producing Enterobacteriacea, colistin-resistant E. coli, carbapenem-resistant Acinetobacter baumannii (CRAB) or carbapenem-resistant Pseudomonas aeruginosa (CRPA). These isolates were chosen because each was resistant to multiple different families of clinically used antibiotics making treatment options limited and importantly, each of these pathogen types are recognised as “Priority 1: CRITICAL” on the World Health Organization (WHO) priority pathogen list for R&D of new antibiotics. Antimicrobial activity against any of these pathogens would therefore be of clinical importance. […] However, we note that many of the compounds tested in Example 4 did show good activity against colistin-resistant E. coli.
# [4] = tested on: carbapenem-resistant Acinetobacter baumannii (CRAB); type: cell-based; conditions: carbapenem-resistant (CRAB)
# Source text: as §4
# [5] = tested on: carbapenem-resistant Enterobacteriacea (CRE); type: cell-based
# Source text: as §4
# [6] = tested on: carbapenem-resistant Pseudomonas aeruginosa (CRPA); type: cell-based; conditions: carbapenem-resistant (CRPA)
# Source text: as §4
# [7] = tested on: kidney organoids derived from human induced pluripotent stem cells; experiment: Nephrotoxicity on kidney organoids, renal tubule deterioration by bright field imaging; type: cell-based; conditions: scored after 48 h; note: key: 1 = unaffected; 2 = mild deterioration; 3 = severe deterioration; 4 = complete deterioration
# Experimental: Selected polymyxin analogues were evaluated for cytotoxicity in physiologically relevant human kidney tissue, using kidney organoids derived from human induced pluripotent stem cells (Soo et al. 2018). Monolipidated analogues 29, 31, 33, containing a propyl, decyl or phenyl lipid, dilapidated compounds, 35, 38, 39, containing a propyl, tert-butyl or phenyl, lipid, respectively and the N-capped, di-lipidated (phenyl) 49 were selected.
# The control compound polymyxin B and the seven ClipPA analogues were tested by adding a range of concentrations (based on Gallado-Godoy et al. 2016) to the organoids at day 12 of the protocol, shown previously to correspond to optimal maturity of the organoid tissues.
# Toxicity was scored after 48 h for signs of renal tubule deterioration visible by bright field imaging (not shown).
Structure (SMILES),MIC E. coli ATCC 25922 (E. coli ATCC 25922; ATCC 25922) [µg/mL],MIC A. baumannii ATCC 19606 (A. baumannii ATCC 19606; ATCC 19606) [µg/mL],MIC P. aeruginosa ATCC 27853 (P. aeruginosa ATCC 27853; ATCC 27853) [µg/mL],MIC K. pneumoniae ATCC 33495 (K. pneumoniae ATCC 33495; ATCC 33495) [µg/mL],MIC K. pneumoniae ATCC 700603 ([1]; ATCC 700603) [µg/mL],MIC K. pneumoniae ATCC MS6671 ([2]; ATCC MS6671) [µg/mL],MIC E. coli ATCC MS8345 (E. coli ATCC MS8345; ATCC MS8345) [µg/mL],MIC [3] [µg/mL],MIC [4] [µg/mL],"MIC ([5]; E. cloacae, IMP-4) [µg/mL]","MIC ([5]; E. coli, NDM-1) [µg/mL]","MIC ([5]; K. pneumoniae, KPC-2) [µg/mL]","MIC ([5]; K. pneumoniae, NDM-5) [µg/mL]",MIC [6] [µg/mL],further results
CCC(=O)OCCSC[C@H](N)C(=O)N[C@@H](CCN)C(=O)N[C@H](C(=O)N[C@@H](CCN)C(=O)N[C@H]1CCNC(=O)[C@H]([C@@H](C)O)NC(=O)[C@H](CCN)NC(=O)[C@H](CCN)NC(=O)[C@H](CC(C)C)NC(=O)[C@@H](Cc2ccccc2)NC(=O)[C@H](CCN)NC1=O)[C@@H](C)O [Compound 29] (H-C(Ethyl(2-propionyloxy))[Dab]T[Dab][Dab][Dab][dF]L[Dab][Dab]T; lactam 5-C),2,2,2,0.125,0.5,>32,32,>32,4,2,2,2,2,>32,IC50 Vero (Vero cell line): 2422 ± 38.98 µg/mL; amount required to cause inhibition (Vero cell line): > 500 µg/mL; fold less toxic towards Vero than Colistin or Polymyxin B (Vero cell line): ~2.5 fold; IC50 HaCaT (HaCaT cell line): 2534 ± 169.2 µg/mL; amount required to cause inhibition (HaCaT cell line): > 500 µg/mL; inhibitory effects against HaCaT compared with Colistin or Polymyxin B (HaCaT cell line): comparable
CCC(=O)OCCSC[C@@H]1NC(=O)[C@@H](Cc2ccccc2)NC(=O)[C@H](CCN)NC(=O)[C@@H](NC(=O)[C@H](CCN)NC(=O)[C@@H](NC(=O)[C@H](CCN)NC(=O)[C@@H](N)CSCCOC(=O)CC)[C@@H](C)O)CCNC(=O)[C@H]([C@@H](C)O)NC(=O)[C@H](CCN)NC(=O)[C@H](CCN)NC1=O [Compound 35] (H-C(Ethyl(2-propionyloxy))[Dab]T[Dab][Dab][Dab][dF]C(Ethyl(2-propionyloxy))[Dab][Dab]T; lactam 5-C),0.5,32,>32,1 to 2,1,>32,>32,>32,8,2,2,4,4,>32,
C[C@@H](O)[C@@H]1NC(=O)[C@H](CCN)NC(=O)[C@H](CCN)NC(=O)[C@H](CSCCOC(=O)C(C)(C)C)NC(=O)[C@@H](Cc2ccccc2)NC(=O)[C@H](CCN)NC(=O)[C@@H](NC(=O)[C@H](CCN)NC(=O)[C@@H](NC(=O)[C@H](CCN)NC(=O)[C@@H](N)CSCCOC(=O)C(C)(C)C)[C@@H](C)O)CCNC1=O [Compound 38] (H-C(Ethyl(2-OPiv))[Dab]T[Dab][Dab][Dab][dF]C(Ethyl(2-OPiv))[Dab][Dab]T; lactam 5-C),0.5,2,4,0.5,0.5,>32,16,16,2,2,2,2,2,>32,
C[C@@H](O)[C@@H]1NC(=O)[C@H](CCN)NC(=O)[C@H](CCN)NC(=O)[C@H](CSCCOC(=O)c2ccccc2)NC(=O)[C@@H](Cc2ccccc2)NC(=O)[C@H](CCN)NC(=O)[C@@H](NC(=O)[C@H](CCN)NC(=O)[C@@H](NC(=O)[C@H](CCN)NC(=O)[C@@H](N)CSCCOC(=O)c2ccccc2)[C@@H](C)O)CCNC1=O [Compound 39] (H-C(Ethyl(2-OBz))[Dab]T[Dab][Dab][Dab][dF]C(Ethyl(2-OBz))[Dab][Dab]T; lactam 5-C),,,,,,,,,,,,,,,"MIC E. coli ATCC 25922 (E. coli ATCC 25922; median of triplicate): 0.5 µg/mL; MIC A. baumannii ATCC 19606 (A. baumannii ATCC 19606; median of triplicate): 2 µg/mL; MIC P. aeruginosa ATCC 27853 (P. aeruginosa ATCC 27853; median of triplicate): 2 µg/mL; MIC K. pneumoniae ATCC 33495 (K. pneumoniae ATCC 33495; median of triplicate): 0.5 µg/mL; MIC K. pneumoniae ATCC 700603 ([1]; median of triplicate): 0.5 µg/mL; MIC K. pneumoniae ATCC MS6671 ([2]; median of triplicate): >32 µg/mL; MIC E. coli ATCC MS8345 (E. coli ATCC MS8345; colistin-resistant strain, median of triplicate): 4 µg/mL; Score (nephrotoxicity on kidney organoids) ([7]; 100 μM): 1; Score (nephrotoxicity on kidney organoids) ([7]; 300 μM): 3; Score (nephrotoxicity on kidney organoids) ([7]; 1 mM): 4; fold more toxic compared to compound 29 (Vero cell line; Vero cell line): ~5 fold; IC50 Vero (Vero cell line; Vero cell line, ± standard error): 521.0 ± 17.05 µg/mL; fold more toxic compared to compound 29 (HaCaT cell line; HaCaT cell line): ~5 fold; IC50 HaCaT (HaCaT cell line; HaCaT cell line, ± standard error): 657.7 ± 87.51 µg/mL"
